# According to publication PMC6940745 (International Journal of Molecular Sciences, 2019):
# pEC50: −log10 of the molar value. Where a SMILES comes first, the peptide text is derived from it. [ ]: non-standard residue; d: D form. The star is where a group is joined. Gly(N(CH2)2(3-indolyl)) = O=C(O)CNCCc1c[nH]c2ccccc12; 2Nal = N[C@@H](Cc1ccc2ccccc2c1)C(=O)O; d2Nal = N[C@H](Cc1ccc2ccccc2c1)C(=O)O; Dab = NCC[C@H](N)C(=O)O; Bz = O=C(c1ccccc1)*; NPr2 = CCCN(CCC)*
# Experiments:
# [1] = system: human abdominal skin ex vivo; assay: Stimulation of pigmentation in human abdominal skin ex vivo (Fontana-Masson melanin quantification); type: cell-based; conditions: 200 µM peptide, topical, six days
# Description: Following declaration of Helsinki principles (DoH-Oct2013, World Medical Association, Ferney-Voltaire, France), human skin samples were obtained from elective plastic surgery after informed consent was obtained. For the two experiments shown in Figure 2, Figure 3 and Figure 4, we had one person with an individual topology angle (ITA°) of 18, and one person with an ITA° of 39 [69]. The skin samples were cut in pieces of 8 × 3 mm and cultured up to day 6. Skin samples were cultured in an air–liquid interface in a perforated ring of stainless steel in contact with culture medium (modified Williams’ E medium). The culture medium was renewed every three days (i.e., day 0–3). Compounds were added daily in DMSO at 4 µL volume. At day 6, the skin samples were fixed in formalin, embedded in paraplast, and cut at the microtome for histochemical staining and consequent image analysis. Six skin biopsies were used for each single treatment.
# Two skin biopsies for each treatment were weighed and, in each case, reduced in the dermal portion, in order to have approximately the same weight for all of them. Samples were then washed and processed with methylthiazolyldiphenyl-tetrazolium bromide (MTT). The color intensity, that is directly proportional to skin vitality, was measured with a plate reader at a wavelength of 570 nm. For melanin quantification, skin sections were stained with a modified Fontana-Masson stain that dyes melanin argentaffin granules in black/dark grey. The amount of melanin present in each slide was evaluated by estimating grey intensity and distribution within the sections using ImageJ application (NIH-USA). Two slides of each skin sample were processed by image acquisition and related analysis (i.e., 12 images for each treatment).
# Figure 2 Stimulation of pigmentation by MC1R-agonist peptides ex vivo. Melanin was quantified on skin sections using ImageJ software (NIH, USA). Human abdominal skin was topically treated with peptides at various concentrations for six days. * p < 0.05 vs vehicle by unpaired Student’s t-test. […]
# [2] = target: T1, human recombinant MC1 receptor (Homo sapiens, UniProt Q01726); assay: MC1R activation, cAMP HTRF assay in CHO-K1 cells; type: cell-based
# T1 construct: host or cells: CHO-K1
# T1 sequence (Q01726 whole entry): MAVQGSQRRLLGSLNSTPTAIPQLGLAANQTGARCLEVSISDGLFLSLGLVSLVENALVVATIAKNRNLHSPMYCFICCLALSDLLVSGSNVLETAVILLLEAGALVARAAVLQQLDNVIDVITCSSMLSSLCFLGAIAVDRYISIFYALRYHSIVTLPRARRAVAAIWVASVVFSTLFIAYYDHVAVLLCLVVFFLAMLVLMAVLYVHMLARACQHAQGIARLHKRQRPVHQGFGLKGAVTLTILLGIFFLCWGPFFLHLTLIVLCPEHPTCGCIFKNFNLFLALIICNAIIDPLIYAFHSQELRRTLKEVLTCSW
# Description: MCR-activation assays were performed by means of a cAMP HTRF (homogeneous time resolved fluorescence) assay for Gs-coupled receptors (cAMP Gs dynamic kit, Cisbio bioassays, 62AM4PEC). CHO-K1 cells expressing human recombinant MC1 receptor (EuroscreenFast, Gosselies, Belgium) (or MC2R, MC3R, MC4R, MC5R) were grown prior to the test in media without antibiotic. They were detached by gentle flushing with PBS-EDTA (5 mM EDTA), recovered by centrifugation, and resuspended in assay buffer (5 mM KCl, 1.25 mM MgSO4, 124 mM NaCl, 25 mM HEPES, 13.3 mM Glucose, 1.25 mM KH2PO4, 1.45 mM CaCl2, 0.5 g/L BSA, supplemented with 1 mM IBMX). Dose response curves were performed in parallel with the reference compounds. For agonist test (96-well), 12 µL of cells were mixed with 12 µL of the test compound diluted at increasing concentrations in assay buffer, and then incubated for 30 min at room temperature. After addition of the lysis buffer and 1 h incubation, fluorescence signal was measured, according to the manufacturer’s specifications, with the homogeneous time resolved fluorescence (HTRF) kit.
# [3] = system: B16 murine melanoma cells; assay: Total melanin synthesis in mouse melanoma cells; type: cell-based; conditions: 72 h incubation
# Description: B16 murine melanoma cells, which are highly responsive towards stimulation with alpha-melanocyte stimulating hormone (alpha-MSH), were grown in Dulbecco’s modified eagle medium (DMEM) with 1 g/L glucose supplemented with 3 g/L glucose, 2 mM L-glutamine, 50 U/mL Penicillin, 50 µg/mL Streptomycin, and 10% fetal calf serum. They were kept at 37 °C in a 5% CO2 atmosphere. Cells were grown for 24 h and then medium was replaced with medium containing the test or reference (NDP-alpha-MSH) compounds. After 72 h, total (intracellular and extracellular) melanin content was determined by absorbance spectroscopy at 405 nm. The results were quantified against a melanin standard curve.
# Figure 1 Total melanin synthesis in mouse melanoma cells stimulated with MC1R-agonist peptides. MC1R-agonist peptides were incubated at various concentrations together with the near confluent mouse melanoma cell line B16F10. NDP-alpha-MSH at 100 nM was used as the reference and set to 100% melanin (red line). Error bars represent standard error of the mean of three experiments.
# other MCRs = system: other MCRs; design: method as in PMID 12591094, PMID 12576087; conditions: MCRs besides MC1R; cited from earlier work
Compound,Stimulation of pigmentation compared to vehicle-treated control tissue [1],pEC50 [2],Concentration at which maximal melanin synthesis activity comparable to 100 nM NDP-alpha-MSH is reached [3],Potency among other MCRs (other MCRs)
N=C(N)NCCC[C@H](NC(=O)[C@@H](Cc1ccccc1)NC(=O)[C@H](Cc1c[nH]cn1)NC(=O)CNC(=O)c1ccccc1)C(=O)N[C@@H](Cc1c[nH]c2ccccc12)C(N)=O [Peptide 1] (Bz-GH[dF]RW-NH2),up to 21%,10.39,around 12.3 nM,
N=C(N)NCCC[C@H](NC(=O)[C@@H](Cc1ccccc1)NC(=O)[C@H](Cc1c[nH]cn1)NC(=O)CNC(=O)c1ccccc1)C(=O)N[C@@H](Cc1ccc2ccccc2c1)C(N)=O [Peptide 2] (Bz-GH[dF]R[2Nal]-NH2),,9.96,around 12.3 nM,
N=C(N)NCCC[C@H](NC(=O)[C@@H](Cc1ccccc1)NC(=O)[C@H](Cc1c[nH]cn1)NC(=O)CNC(=O)c1ccccc1)C(=O)N[C@H](Cc1ccc2ccccc2c1)C(N)=O [Peptide 3] (Bz-GH[dF]R[d2Nal]-NH2),,9.60,around 12.3 nM,
CCCN(CCC)C(=O)[C@H](Cc1c[nH]c2ccccc12)NC(=O)[C@H](CCCNC(=N)N)NC(=O)[C@@H](Cc1ccccc1)NC(=O)[C@H](Cc1c[nH]cn1)NC(=O)CNC(=O)c1ccccc1 [Peptide 5] (Bz-GH[dF]RW-NPr2),,9.06,,
N=C(N)NCCC[C@H](NC(=O)[C@@H](Cc1ccccc1)NC(=O)[C@H](Cc1c[nH]cn1)NC(=O)CNC(=O)c1ccccc1)C(=O)N[C@H](Cc1ccccc1)C(N)=O [Peptide 6] (Bz-GH[dF]R[dF]-NH2),,8.75,> 111 nM,
N=C(N)NCCC[C@H](NC(=O)[C@@H](Cc1ccccc1)NC(=O)[C@H](Cc1c[nH]cn1)NC(=O)CNC(=O)c1ccccc1)C(=O)N(CCc1c[nH]c2ccccc12)CC(N)=O [Peptide 7] (Bz-GH[dF]R[Gly(N(CH2)2(3-indolyl))]-NH2),,,> 111 nM,
NCC[C@H](NC(=O)[C@@H](Cc1ccccc1)NC(=O)[C@H](Cc1c[nH]cn1)NC(=O)CNC(=O)c1ccccc1)C(=O)N[C@@H](Cc1c[nH]c2ccccc12)C(N)=O [Peptide 8] (Bz-GH[dF][Dab]W-NH2),,8.12,> 111 nM,
Ac-Ser-Tyr-Ser-Met-Glu-His-Phe-Arg-Trp- Gly-Lys-Pro-Val-NH2 [alpha-MSH],,,,≤ 5 nM
